Where “and” joins values, the source holds several entries; their conditions need not be identical. Equal values may be shown once.
Assays:
[1] = tested on: Eggerthella lenta; test: MIC, CLSI microbroth dilution (anaerobic bacteria); assay type: cell-based; design: unit not given here; conditions: Eggerthella lenta - ATCC 43055, SBB (Table 2)
[2] = tested on: Staphylococcus aureus; test: MIC, CLSI microbroth dilution (aerobic bacteria); assay type: cell-based; design: unit not given here
Excerpt: (§1) Cation-adjusted Mueller-Hinton broth (Oxoid Ltd., Basingstoke, UK and Trek Diagnostic Systems Ltd., East Grinstead, UK) (supplemented with 5% laked horse blood for Streptococcus spp., Corynebacterium jeikeium and Listeria monocytogenes) was used for aerobic bacteria, with an initial inoculum of approximately 10^5 colony-forming units (CFU)/mL.
(§2) To evaluate whether freezing affected the activity of the peptides some MIC determinations were repeated using plates containing freshly-prepared Mueller-Hinton broth.

[3] = tested on: trypsin; test: in vitro; assay type: in vitro ADME; conditions: pH 8.6
Procedure: Measurements and Calculation of Peptide Half-Life
Each peptide was dissolved in a 0.1 M NH4HCO3 buffer (pH 6.5) to yield a final peptide concentration of 1 mg/ml. A trypsin solution was prepared by dissolving 1 mg of trypsin in 50 ml 0.1 M NH4HCO3 buffer (pH 8.2). For the stability determination, 250 μl freshly made trypsin solution and 250 μl peptide solution were incubated in 2 ml of 0.1 M NH4HCO3 buffer (pH 8.6) at 37° C. on a rocking table. Aliquots of 0.5 ml were sampled at different time intervals, diluted with 0.5 ml water:acetonitrile (60:40 v/v) containing 1% TFA and analysed by RP-HPLC as described above. Samples without trypsin addition taken at 0 h and after 20 h at 37° C. were used as negative controls. Integration of the peak area at 254 nm for samples taken during the first 5 hours of the assay was used to generate the τ1/2.

[4] = tested on: Clostridium difficile; test: MIC, CLSI microbroth dilution (anaerobic bacteria); assay type: cell-based; conditions: Clostridium difficile - antibiotic-susceptible clinical isolate
Procedure: M11-A6 Vol. 24 No. 2 Methods for Antimicrobial Susceptibility Testing of Anaerobic Bacteria; Approved Standard-Sixth Edition.
Supplemented Brucella broth (SBB) was used for the anaerobic strains with an inoculum of approximately 10^6 CFU/mL. SBB is a broth consisting of 1% peptone, 0.5% ‘Lab-lemco’, 1% glucose and 0.5% sodium chloride supplemented with 5 […] vitamin K (both obtained from Sigma Aldrich Ltd.)

[5] = tested on: Shigella sp; test: MIC, CLSI microbroth dilution (aerobic bacteria); assay type: cell-based; design: unit not given beside the values; conditions: Shigella sp - antibiotic-susceptible clinical isolate
Excerpt: as §1

[6] = tested on: Streptococcus constellatus; test: MIC, CLSI microbroth dilution (aerobic bacteria); assay type: cell-based; design: unit not given beside the values
Excerpt: as §1

[7] = tested on: Clostridium perfringens; assay type: cell-based; conditions: Clostridium perfringens - antibiotic-susceptible clinical isolate
[8] = tested on: Escherichia coli; test: MIC, CLSI microbroth dilution (aerobic bacteria); assay type: cell-based; design: unit not given beside the values
Excerpt: as §1, §2

[9] = tested on: Pseudomonas aeruginosa; test: MIC, CLSI microbroth dilution (aerobic bacteria); assay type: cell-based; design: unit not given beside the values
Excerpt: as §1, §2

[10] = tested on: Enterococcus faecalis; test: MIC, CLSI microbroth dilution (aerobic bacteria); assay type: cell-based; design: unit not given beside the values
Excerpt: as §1, §2

[11] = tested on: Aspergillus niger; test: MIC, CLSI microbroth dilution (filamentous fungi); assay type: cell-based; design: unit not given beside the values; conditions: Aspergillus niger - G.R. Micro collection
Procedure: (§3) M38-A Vol. 22 No. 16 Reference Method for Broth Dilution Antifungal Susceptibility Testing of Filamentous Fungi; Approved Standard.
(§4) Yeast and filamentous fungal MIC were performed in MOPS buffered RPMI 1640 medium (MOPS buffer obtained from Sigma Aldrich Ltd., RPMI 1640 obtained from Invitrogen Ltd, Paisley, Scotland). The yeast inocula were in the range 7.5×10^2-4×10^3 CFU/mL and the filamentous fungi approximately 8×10^3-1×10^5CFU/mL

[12] = tested on: Trichophyton interdigitale; test: MIC, CLSI microbroth dilution (filamentous fungi); assay type: cell-based; design: unit not given beside the values; conditions: Trichophyton interdigitale - G.R. Micro collection
Procedure: as §3, §4

[13] = tested on: Trichophyton mentagrophytes; test: MIC, CLSI microbroth dilution (filamentous fungi); assay type: cell-based; design: unit not given beside the values; conditions: Trichophyton mentagrophytes - G.R. Micro collection
Procedure: as §3, §4

[14] = tested on: Haemophilus influenzae; test: MIC, CLSI microbroth dilution (Haemophilus test medium)
[15] = tested on: Candida tropicalis; test: MIC, CLSI microbroth dilution (yeasts); assay type: cell-based; design: unit not given beside the values; conditions: Candida tropicalis ATCC750 - reference strain
Procedure: (§5) M27-A2 Vol. 22 No. 15 Reference Method for Broth Dilution Antifungal Susceptibility Testing of Yeasts; Approved Standard-Second Edition.
as §4

[16] = tested on: Cryptococcus neoformans; test: MIC, CLSI microbroth dilution (yeasts); assay type: cell-based; design: unit not given beside the values; conditions: Cryptococcus neoformans - G.R. Micro collection
Procedure: as §5, §4

[17] = tested on: Candida parapsilosis; test: MIC, CLSI microbroth dilution (yeasts); assay type: cell-based; design: unit not given beside the values
Procedure: as §5, §4

[18] = tested on: Candida (Issatchenkia) krusei; test: MIC, CLSI microbroth dilution (yeasts); assay type: cell-based; design: unit not given beside the values
Procedure: as §5, §4

[19] = tested on: Candida albicans; test: MIC, CLSI microbroth dilution (yeasts); assay type: cell-based; design: unit not given beside the values
Procedure: as §5, §4

Compound: N=C(N)NCCCC(N)C(=O)NC(Cc1ccc(-c2ccc3ccccc3c2)cc1)C(=O)NC(CCCNC(=N)N)C(=O)NCCc1ccccc1 (stereo not drawn) [Compound 1]
- MIC [1]: 16
- MIC ([2]; EMRSA1 Staphylococcus aureus (MRSA) - SSCmec type 3): 8
- MIC ([2]; EMRSA3 Staphylococcus aureus (MRSA) - SSCmec type 1): 4
- MIC ([2]; EMRSA15 Staphylococcus aureus (MRSA) - SSCmec type 4): 4
- MIC ([2]; EMRSA16 Staphylococcus aureus (MRSA) - SSCmec type 2): 4
- MIC ([2]; GP01 Staphylococcus aureus ATCC 29213 control strain, repeat results (Table 2), Fresh MHB): 4
- MIC ([2]; GP01 Staphylococcus aureus ATCC 29213 control strain, repeat results (Table 2), Frozen MHB): 8 and 4
- MIC ([2]; HT2001254 Staphylococcus aureus (MRSA) - PVL positive): 4
- MIC ([2]; MU50 Staphylococcus aureus (MRSA) - VISA type strain): 4
- MIC ([2]; Staphylococcus aureus - methicillin-resistant clinical isolate): 4
- MIC ([2]; Staphylococcus aureus - multi-drug-resistant clinical isolate): 8
- MIC ([2]; Staphylococcus aureus - teicoplanin-intermediate clinical isolate): 4
- MIC ([2]; Staphylococcus aureus ATCC 25923 - antibiotic-susceptible control): 4
- MIC ([2]; Staphylococcus aureus ATCC 29213 - antibiotic-susceptible control (Table 1)): 4
- MIC ([2]; Staphylococcus aureus ATCC 43300 - methicillin-resistant control strain): 4
- half-life at 0.1 mg/ml [3]: > 24 h
- MIC [4]: 32
- MIC [5]: 32
- MIC ([6]; Streptococcus constellatus - antibiotic-susceptible clinical isolate): 64
- MIC ([6]; Streptococcus constellatus - macrolide-resistant clinical isolate): 64
- MIC [7]: ≧128
- MIC ([8]; Escherichia coli - multi-drug resistant clinical isolate): 32
- MIC ([8]; Escherichia coli ATCC25922 - antibiotic-susceptible type strain): 32
- MIC ([8]; Escherichia coli ATCC32518 - β-lactamase positive type strain): 32
- MIC ([8]; GN01 Escherichia coli ATCC 25922 type strain, repeat results (Table 2), Fresh MHB): 16
- MIC ([8]; GN01 Escherichia coli ATCC 25922 type strain, repeat results (Table 2), Frozen MHB): 32
- MIC ([9]; GN10 Pseudomonas aeruginosa ATCC 27853 type strain, repeat results (Table 2), Fresh MHB): 8
- MIC ([9]; GN10 Pseudomonas aeruginosa ATCC 27853 type strain, repeat results (Table 2), Frozen MHB): 16 and 32
- MIC ([9]; Pseudomonas aeruginosa - multi-drug resistant clinical isolate): 32
- MIC ([9]; Pseudomonas aeruginosa ATCC27853 - antibiotic-susceptible type): 16
- MIC ([10]; Enterococcus faecalis - ATCC 29212 antibiotic-susceptible control (Table 1)): 4
- MIC ([10]; Enterococcus faecalis high-level gentamicin-resistant clinical isolate): 16
- MIC ([10]; Enterococcus faecalis vancomycin-resistant (VanA) clinical isolate): 16
- MIC ([10]; Enterococcus faecalis vancomycin-resistant (VanB) clinical isolate): 16
- MIC ([10]; Enterococcus faecalis vancomycin-susceptible clinical isolate): 8
- MIC ([10]; GP11 Enterococcus faecalis - ATCC 29212 control strain, repeat results (Table 2), Fresh MHB): 4
- MIC ([10]; GP11 Enterococcus faecalis - ATCC 29212 control strain, repeat results (Table 2), Frozen MHB): 8
- MIC [11]: 4
- MIC [12]: 8
- MIC [13]: 16
- MIC ([14]; Haemophilus influenzae - β-lactamase negative clinical isolate): ≧128
- MIC ([14]; Haemophilus influenzae - β-lactamase positive clinical isolate): ≧128
- MIC ([14]; Haemophilus influenzae β-lactamase negative ampicillin-resistant): ≧128
- MIC [15]: 2
- MIC [16]: 4
- MIC ([17]; Candida parapsilosis ATCC 22019, RPMI 1640 (Table 2)): 4
- MIC ([17]; Candida parapsilosis ATCC90018 - reference strain): 4
- MIC ([18]; Candida (Issatchenkia) krusei ATCC6258 - reference strain): 4
- MIC ([18]; F05 Candida (Issatchenkia) krusei ATCC 6258 reference strain, repeat results (Table 2), RPMI 1640): 8
- MIC ([19]; Candida albicans ATCC24433 - reference strain): 2
- MIC ([19]; Candida albicans ATCC90028 - reference strain): 2

From patent US8598114B2, “Antimicrobial compounds” (priority 2007, dated 2013)
